Results as given in the supplement of paper PMC4862054.

Legend:
[1] = test system: HDQ-P1; conditions: 72 h
Experimental: (§1)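 Drug sensitivity and resistance testing (DSRT) of breast cancer cell lines in 384-well plates, 5 concentrations in 10-fold dilutions over a compound-specific 10,000-fold range. After 72 h, cytotoxicity was read by CellTox Green fluorescence and viability by CellTiter-Glo luminescence (multiplexed), normalised to DMSO and benzethonium chloride controls. EC50 is the inflection point of the fitted dose-response curve (bottom asymptote free, so it can be relative for partial curves) and is censored at the highest tested concentration. Rows with DSS 0 (no meaningful response) were excluded.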

[2] = test system: MDA-MB-468; conditions: 72 h
Experimental: as §1

[3] = test system: Hs578T; conditions: 72 h
Experimental: as §1

[4] = test system: DU-4475; assay: normalised response (% of control), CellTiter-Glo; higher = more viable cells (100 = DMSO, 0 = benzethonium chloride kill control); conditions: incubation time: 72 h
Outline: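 Two readouts were taken after 72 h: CellTox Green fluorescence (485/520 nm) first, then CellTiter-Glo luminescence after 10 min at room temperature. Breast cancer cell lines had been seeded as 20 µl suspension into 384-well plates holding compound at 5 concentrations in 10-fold steps across a compound-specific 10,000-fold range. Each value is a normalised signal at a single concentration, with plates scaled to 0.1 % DMSO (100) and a positive kill control (0).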

[5] = test system: CAL-51; conditions: 72 h
Outline: (§2)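 EC50 is the value from a fitted percent-inhibition dose-response curve, censored at the highest concentration, and rows with zero drug sensitivity score were not kept. The underlying assay seeded breast cancer cell lines in 20 µl onto 384-well plates pre-loaded with compound in 5 µl medium for 72 h. Viability was then read by CellTiter-Blue fluorescence at 560/590 nm after 2 h at 37 °C, with each plate normalised to vehicle and a positive kill control.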

[6] = test system: DU-4475; conditions: 72 h
Outline: as §2

[7] = test system: CAL-148; conditions: 72 h
Outline: as §2

[8] = test system: DU-4475; conditions: 72 h; remark: listed apart in the source
Outline: (§3)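 The plates used were 384-well plates holding compound at 5 concentrations in 10-fold steps across a compound-specific 10,000-fold range, into which breast cancer cell lines were seeded in 20 µl suspension. Following 72 h incubation, CellTox Green fluorescence was read at 485/520 nm, and CellTiter-Glo luminescence was read after 10 min at room temperature. Normalisation on each plate used 0.1 % DMSO and a positive kill control. Dose-response curves gave the EC50, which was censored at the top concentration.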

[9] = test system: MDA-MB-468; conditions: 72 h; remark: listed apart in the source
Outline: as §3

[10] = test system: MDA-MB-436; conditions: 72 h
Outline: as §3

[11] = test system: CAL-148; conditions: 72 h; remark: listed apart in the source
Outline: as §3

[12] = test system: HCC1143; conditions: 72 h
Outline: as §2

[13] = test system: HCC1937; conditions: 72 h
Outline: as §2

[14] = test system: CAL-51; conditions: 72 h; remark: listed apart in the source
Outline: as §3

[15] = test system: BT-549; conditions: 72 h
Outline: as §3

[16] = test system: CAL-51; conditions: 72 h; remark: listed apart in the source
Experimental: as §1

[17] = test system: SK-BR-3; conditions: 72 h
Outline: as §3

[18] = test system: HDQ-P1; conditions: 72 h; remark: listed apart in the source
Outline: as §3

[19] = test system: CAL-85-1; conditions: 72 h
Outline: as §3

[20] = test system: HCC1599; conditions: 72 h
Outline: as §3

[21] = test system: BT-474; conditions: 72 h
Outline: as §3

[22] = test system: HCC1143; conditions: 72 h; remark: listed apart in the source
Outline: as §3

[23] = test system: Hs578T; conditions: 72 h; remark: listed apart in the source
Outline: as §3

[24] = test system: MDA-MB-231; conditions: 72 h
Outline: as §3

[25] = test system: HCC1937; conditions: 72 h; remark: listed apart in the source
Outline: as §3

[26] = test system: MFM-223; conditions: 72 h
Outline: as §3

[27] = test system: MCF-10A; conditions: 72 h
Outline: as §3

[28] = test system: CAL-120; conditions: 72 h
Outline: as §3

[29] = test system: MDA-MB-453; conditions: 72 h
Outline: as §3

[30] = test system: BT-474; conditions: 72 h; remark: listed apart in the source
Experimental: as §1

[31] = test system: MFM-223; conditions: 72 h; remark: listed apart in the source
Experimental: as §1

[32] = test system: CAL-148; conditions: 72 h; remark: listed apart in the source
Experimental: as §1

[33] = test system: MDA-MB-231; conditions: 72 h; remark: listed apart in the source
Experimental: as §1

SMILES: Cn1cc(C[C@@H](N)C(=O)O)c2ccccc21 [1-methyl-D-tryptophan]
- EC50, CellTox Green [1]: > 5000 nM
- EC50, CellTox Green [2]: > 5000 nM
- EC50, CellTox Green [3]: > 5000 nM

SMILES: CO[C@H](C(=O)[C@@H](O)[C@@H](C)O)[C@@H]1Cc2cc3cc(O[C@H]4C[C@@H](O[C@@H]5C[C@@H](O)[C@H](O)[C@@H](C)O5)[C@H](O)[C@@H](C)O4)c(C)c(O)c3c(O)c2C(=O)[C@H]1O[C@H]1C[C@@H](O[C@@H]2C[C@@H](O)[C@@H](O[C@@H]3C[C@](C)(O)[C@H](O)[C@@H](C)O3)[C@@H](C)O2)[C@H](O)[C@@H](C)O1 [Plicamycin] (1000 nM)
- normalised response [4]: 99.2%

SMILES: COc1cc2c(Oc3ccc(NC(=O)C4(C(=O)Nc5ccc(F)cc5)CC4)cc3F)ccnc2cc1OCCCN1CCOCC1 [Foretinib] (100 nM)
- normalised response [4]: 99.9%

SMILES: Cc1c(N)nc([C@H](CC(N)=O)NC[C@H](N)C(N)=O)nc1C(=O)N[C@H](C(=O)N[C@H](C)[C@@H](O)[C@H](C)C(=O)N[C@H](C(=O)NCCc1nc(-c2nc(C(=O)NCCC[S+](C)C)cs2)cs1)[C@@H](C)O)[C@@H](OC1OC(CO)C(O)C(O)C1OC1OC(CO)C(O)C(OC(N)=O)C1O)c1cnc[nH]1 (stereo partly drawn) [Bleomycin] (1000 nM)
- normalised response [4]: 92.1%

SMILES: CN1CCN(c2nc(C3=C(c4c[nH]c5ccccc45)C(=O)NC3=O)c3ccccc3n2)CC1 [Sotrastaurin] (1000 nM)
- normalised response [4]: 86.4%

SMILES: CC[C@@H]1C(=O)N(C)c2cnc(Nc3ccc(C(=O)N[C@H]4CC[C@H](N5CCN(CC6CC6)CC5)CC4)cc3OC)nc2N1C(C)C [Volasertib] (100 nM)
- normalised response [4]: 49.1%

SMILES: NC(=O)c1cccc2cn(-c3ccc([C@@H]4CCCNC4)cc3)nc12 [MK-4827]
- EC50, CellTiter-Blue viability [5]: 1780 nM
- EC50, CellTiter-Blue viability [6]: 4420 nM
- EC50, CellTiter-Blue viability [7]: 2330 nM
- EC50, CellTiter-Glo [8]: 1090 nM
- EC50, CellTiter-Glo [9]: 9350 nM
- EC50, CellTiter-Glo [10]: 601 nM
- EC50, CellTiter-Glo [11]: 2630 nM
- EC50, CellTiter-Blue viability [12]: 1660 nM
- EC50, CellTiter-Blue viability [13]: 1330 nM

SMILES: NC(=O)NO [Hydroxyurea]
- EC50, CellTiter-Glo [14]: 1290 nM
- EC50, CellTiter-Glo [15]: 14000 nM
- EC50, CellTox Green [16]: 16300 nM
- EC50, CellTiter-Blue viability [13]: 13400 nM

SMILES: CCN(CC)CCOc1ccc(C(=C(Cl)c2ccccc2)c2ccccc2)cc1 [Clomifene] (1000 nM)
- normalised response [4]: 97.4%

SMILES: CN1CCN(c2nc(C3=C(c4c[nH]c5ccccc45)C(=O)NC3=O)c3ccccc3n2)CC1 [Sotrastaurin]
- EC50, CellTiter-Glo [17]: 1460 nM
- EC50, CellTiter-Glo [18]: > 10000 nM
- EC50, CellTiter-Glo [8]: 6790 nM

SMILES: CC[C@H](CC#N)OC(=O)N[C@@H](C)c1cccc(NC(=O)Nc2ccc(-c3cnco3)c(OC)c2)c1 [AVN944]
- EC50, CellTiter-Glo [14]: 196 nM
- EC50, CellTiter-Glo [19]: 174 nM
- EC50, CellTiter-Glo [17]: 491 nM
- EC50, CellTiter-Glo [18]: 198 nM
- EC50, CellTiter-Glo [20]: 649 nM
- EC50, CellTiter-Glo [8]: 465 nM
- EC50, CellTiter-Glo [9]: 85 nM
- EC50, CellTiter-Glo [21]: 699 nM
- EC50, CellTiter-Glo [22]: 359 nM
- EC50, CellTiter-Glo [23]: 532 nM
- EC50, CellTiter-Glo [24]: 287 nM
- EC50, CellTiter-Glo [25]: 333 nM
- EC50, CellTiter-Glo [26]: 859 nM
- EC50, CellTiter-Glo [10]: 176 nM
- EC50, CellTiter-Glo [11]: 236 nM
- EC50, CellTiter-Glo [27]: 176 nM
- EC50, CellTiter-Glo [15]: 139 nM
- EC50, CellTiter-Glo [28]: 376 nM
- EC50, CellTox Green [16]: 176 nM
- EC50, CellTox Green [3]: 191 nM

SMILES: CC(C)NC[C@@H](C(=O)N1CCN(c2ncnc3c2[C@H](C)C[C@H]3O)CC1)c1ccc(Cl)cc1 [GDC-0068]
- EC50, CellTiter-Glo [14]: 2780 nM
- EC50, CellTiter-Glo [19]: 6480 nM
- EC50, CellTiter-Glo [17]: 814 nM
- EC50, CellTiter-Glo [18]: 271 nM
- EC50, CellTiter-Glo [8]: 2070 nM
- EC50, CellTiter-Glo [9]: 656 nM
- EC50, CellTiter-Glo [21]: > 10000 nM
- EC50, CellTiter-Glo [22]: 1590 nM
- EC50, CellTiter-Glo [23]: 1150 nM
- EC50, CellTiter-Glo [25]: 2350 nM
- EC50, CellTiter-Glo [26]: 139 nM
- EC50, CellTiter-Glo [10]: > 10000 nM
- EC50, CellTiter-Glo [29]: 783 nM
- EC50, CellTiter-Glo [11]: 177 nM
- EC50, CellTiter-Glo [27]: 1150 nM
- EC50, CellTiter-Glo [15]: 600 nM
- EC50, CellTiter-Glo [28]: 819 nM
- EC50, CellTox Green [16]: 1150 nM
- EC50, CellTox Green [1]: > 10000 nM
- EC50, CellTox Green [2]: 2640 nM
- EC50, CellTox Green [30]: 5810 nM
- EC50, CellTox Green [31]: 1330 nM
- EC50, CellTox Green [32]: 221 nM

SMILES: Cc1c(C(=O)Nc2ccc(N3C[C@@H](C)O[C@@H](C)C3)nc2)cccc1-c1ccc(OC(F)(F)F)cc1 [Erismodegib]
- EC50, CellTiter-Glo [14]: 41 nM
- EC50, CellTiter-Glo [9]: 6610 nM
- EC50, CellTiter-Glo [21]: 722 nM
- EC50, CellTiter-Glo [10]: 636 nM
- EC50, CellTox Green [33]: > 10000 nM
